Data on three compounds can be found in patent publication US12343350B2, “Istaroxime-containing intravenous formulation for the treatment of acute heart failure (AHF)” (Windtree Therapeutics, Inc., priority 2019, dated 2025).

Each structure is given as a SMILES string. Structures can show the parent of a compound that is named as a salt. Where two headings read alike, the source gives them in different places. Marks after values point to notes of the source that are not given here.

One may read the IC50 as the point on the concentration scale where inhibition reaches its midpoint.

Data set [1] has as its target dog renal Na,K-ATPase (Canis lupus familiaris (Dog) (Canis familiaris), UniProt P50997). Nature of the data set: Inhibition of dog renal Na,K-ATPase activity (32P-ATP). Type of data set: biochemical. The method, then:
Kidneys were sliced and the outer medulla was dissected, pooled and suspended (1 g/10 ml) in a sucrose-histidine solution, containing 250 mM sucrose, 30 mM histidine and 5 mM EDTA, pH 7.2 and homogenized. The homogenate was centrifuged at 6.000 g for 15 min, the supernatant was decanted and centrifuged at 48.000 g for 30 min. The pellet was suspended in the sucrose-histidine buffer and incubated for 20 min with a sodium-dodecyl-sulphate (SDS) solution dissolved in a gradient buffer, containing 25 mM imidazole and 1 mM EDTA, pH 7.5. […] The pellet was suspended in the gradient buffer.
Increasing concentrations of the standard ouabain, or tested compound, were incubated with 0.3 μg of purified dog kidney enzyme for 10 min at 37° C. in 120 μl final volume of a medium containing 140 mM NaCl, 3 mM MgCl2, 50 mM Hepes-Tris, 3 mM ATP at a pH 7.5. Then, 10 μl of incubation solution containing 10 mM KCl and 20 nCi of ^32P-ATP (3-10 Ci/mmol, Perkin Elmer) was added, and the reaction was continued for 15 min at 37° C. The reaction was then stopped by acidification with 20% v/v ice-cold perchloric acid. ^32P was separated by centrifugation with activated Charcoal (Norit A, Serva) and the radioactivity was measured. The inhibitory activity was expressed as percent of the control samples carried out in the absence of ouabain or tested compound.

Data set [2] concerns SERCA2a. Conditions: previous studies; cited from earlier work.
For data set [3] the following is noted: death due mainly to arrhythmias; cited from earlier work.
A short description of data set [4]: Plasma levels of istaroxime and its metabolites in patients (HPLC-MS/MS). The data set is classed as in vivo, human. Conditions: 24 h infusion of 0.5 or 1 μg/kg/min istaroxime, Caucasian and Chinese patients. The procedure:
The quantitative determination of PST 2744 and its metabolite PST 2915 in human plasma was determined by the HPLC-MS/MS method that included a mobile phase of 70:30 acetonitrile/water, 1 mL/L 1M formic acid, and 1 mL/L 5M ammonium acetate. The flow rate was 1 mL/min, and the chromatographic separation was by reversed phase HPLC (Column: SYNERGI 4μ POLAR-RP80A 150×4.6 mm equipped with a Security-guard Phenomenex Polar-RP 4×3 mm). Detection was performed by MS/MS, and the acquisition mode was Multiple Reaction Monitoring (MRM).
The quantitative determination of istaroxime metabolies PST 2922 and PST 3093 in human plasma was also measured by the HPLC-MS/MS method. In this case, the mobile phase was 50:50 H2 O/CH3 CN (v/v) and 500 μL/L 98-100% HCOOH. The flow rate was 1 mL/min and chromatographic separation was done by reversed-phase HPLC (Column: Phenomenex Phenyl hexyl, 150×4.6 mm, equipped with a Phenomenex phenyl propyl guard-cartridge) under isocratic conditions. Detection was performed by MS/MS (376.0→282.0 amu for PST2922, 378.0→284.0 amu for PST 3093 and 362.0→268.0 amu for PST 3418, IS).

The target in data set [5] is SERCA2a (Canis lupus familiaris (Dog) (Canis familiaris), UniProt O46674). As to the kind of experiment: SERCA2a ATPase activity in heart-derived SR microsomes from normal dog. Conditions: normal dog SR microsomes. The data set is classed as biochemical. The method, then: Male beagle dogs were used for obtaining cardiac tissues for SERCA2a-enriched sarcoplasmic reticulum preparations. Healthy dogs were utilized for obtaining the data in Table 3. Chronic heart failure was induced in dogs by multiple intracoronary microembolizations with polystyrene latex microspheres ([…], Polysciences, Warrington, PA, USA) as described previously (see Sabbah H N et al., Am J Physiol. 1991; 260:H1379-84). The experiments were conducted in the General Pharmacology Department of Sigma-Tau, Rome, Italy.
Left ventricle tissues were dissected, homogenized in 4 volumes of 10 mM NaHCO3 (pH 7), 1 mM PMSF, 10 μg/ml Aprotinin and Leupeptin and centrifuged at 12.000 g for 15 minutes, as described in Nediani C. et al. (J Biol Chem. 1996; 271:19066-73). Supernatants were filtered and centrifuged at 100.000 g for 30 min. Contractile proteins were extracted by suspending the pellets with 0.6 M KCl, 30 mM Histidine, pH 7 and further centrifugation at 100.000 g for 30 min. Final pellets were reconstituted with 0.3 M Sucrose, 30 mM Histidine, pH 7.
SERCA2a activity was measured in vitro as ^32P-ATP hydrolysis at different Ca2^+ concentrations (100 to 3000 nM) in the absence and presence of the tested compounds as described previously (see Micheletti R. et al., Am J Card 2007; 99:24A-32A). Increasing concentrations of each compound (from 0.05 to 300 nM) were pre-incubated with 2 μg of microsomes for 5 min at 4° C. in 80 μl of a solution containing 100 mM KCl, 5 mM MgCl2, 1 μM A23187, 20 mM Tris, pH 7.5. Then, 20 μl of 5 mM Tris-ATP containing 50 nCi of ^32P-ATP (3-10 Ci/mmol, Perkin Elmer) was added. The ATP hydrolysis was continued for 15 min at 37° C. and was stopped by acidification with 100 μl of 20% v/v ice-cold perchloric acid. ^32P was separated by centrifugation with activated charcoal (Norit A, SERVA) and the radioactivity was measured. SERCA2a-dependent activity was identified as the portion of total hydrolytic activity inhibited by 10 μM cyclopiazonic acid (see Seidler N W. et al., J Biol Chem. 1989; 264:17816-23).
Dose-response curves were fitted by using a sigmoidal curve fitting software and the maximal velocity (Vmax) activity and the Kd Ca2^+ were calculated (Synergy Software KaleidaGraph 3.6).
The compounds disclosed herein were tested on SERCA2a ATPase activity prepared from normal and failing dogs in a range of concentrations from […]. The effect has been expressed as % increase of the Vmax activity of a control sample run in the absence of compound. Data are mean & SD, where n indicates the number of experiments.

The conditions of data set [6]: stimulation of cardiac pumping ability; cited from earlier work.

SERCA2a (Canis lupus familiaris (Dog) (Canis familiaris), UniProt O46674), sequence (O46674 whole entry): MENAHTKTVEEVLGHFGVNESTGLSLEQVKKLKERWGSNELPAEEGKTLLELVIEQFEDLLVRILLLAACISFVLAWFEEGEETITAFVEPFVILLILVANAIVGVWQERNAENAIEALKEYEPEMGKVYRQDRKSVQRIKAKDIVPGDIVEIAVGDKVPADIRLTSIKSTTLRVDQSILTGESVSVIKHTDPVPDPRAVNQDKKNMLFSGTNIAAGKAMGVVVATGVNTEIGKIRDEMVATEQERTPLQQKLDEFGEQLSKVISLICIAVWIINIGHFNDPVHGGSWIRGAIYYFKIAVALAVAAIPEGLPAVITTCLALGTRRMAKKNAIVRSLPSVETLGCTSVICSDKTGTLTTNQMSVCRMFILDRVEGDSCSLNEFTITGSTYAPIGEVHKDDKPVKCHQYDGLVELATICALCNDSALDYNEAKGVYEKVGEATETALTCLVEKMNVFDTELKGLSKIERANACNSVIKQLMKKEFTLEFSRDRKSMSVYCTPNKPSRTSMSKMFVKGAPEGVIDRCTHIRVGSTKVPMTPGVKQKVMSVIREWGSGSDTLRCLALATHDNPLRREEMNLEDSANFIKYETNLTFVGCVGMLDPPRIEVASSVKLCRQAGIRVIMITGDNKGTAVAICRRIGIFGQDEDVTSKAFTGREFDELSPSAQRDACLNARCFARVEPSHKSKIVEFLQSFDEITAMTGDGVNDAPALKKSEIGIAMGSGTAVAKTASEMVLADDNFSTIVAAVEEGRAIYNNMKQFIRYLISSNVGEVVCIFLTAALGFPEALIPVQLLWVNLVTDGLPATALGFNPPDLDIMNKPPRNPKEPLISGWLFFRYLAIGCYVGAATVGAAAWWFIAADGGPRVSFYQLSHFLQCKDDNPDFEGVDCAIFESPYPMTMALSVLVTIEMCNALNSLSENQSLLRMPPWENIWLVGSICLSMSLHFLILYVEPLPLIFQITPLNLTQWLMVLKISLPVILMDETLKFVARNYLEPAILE

On to `C[C@H]1O[C@@H](O[C@H]2[C@@H](O)C[C@H](O[C@H]3[C@@H](O)C[C@H](O[C@H]4CC[C@@]5(C)[C@H](CC[C@@H]6[C@@H]5C[C@@H](O)[C@]5(C)[C@@H](C7=CC(=O)OC7)CC[C@]65O)C4)O[C@@H]3C)O[C@@H]2C)C[C@H](O)[C@@H]1O` [Digoxin], for which the 50% inhibitory concentration (IC50) in data set [1] (purified dog kidney enzyme, 37° C., read-out: IC50, inhibition of dog renal Na,K-ATPase) amounted to 0.18 µM. For the same compound, the SERCA2a activity stimulation result in data set [2] is given as “failed to stimulate”. In data set [3], the “serum concentration threshold above which increased risk of death” value was 0.9 ng/mL.

`C[C@]12CCC(=NOCCN)CC1[C@H](O)CC1C2CC[C@]2(C)C(=O)CCC12` (stereo partly drawn) [PST 2915, (E,Z)-3-(2-Aminoethoxyimino)-6beta-hydroxyandrostan-17-one hydrochloride]: the “plasma concentration course during the infusion period” value in data set [4] is “continue to accumulate”. Further, the IC50 in data set [1] came out at 2.1 µM. In addition, the “% increase vs control (Vmax)” value in data set [5] (0.1 nM compound) is given as 11%; in data set [5] (10 nM compound) it was 16* %.

For `COC(=O)N1CCN(Cc2cccc(NC(=O)Nc3ccc(C)nc3)c2F)CC1` [omecamtiv], the “plasma levels of Hs TnT” value in data set [6] was “associated with an increase”.
